# Results from patent US4060527A, “Pyrido[2,3-c]-acridine-1-hydroxy-2-carboxylic acid derivatives” (Fuji Chemical Industries, Ltd., priority 1975, dated 1977).
# Read-outs that look alike come from different tables or passages of the source.
# Tests used:
# Staphylococcus aureus [1] = experiment: Antibacterial activity (MIC) against Staphylococcus aureus as Gram-positive bacterium; format: cell-based; settings: Table 3, class symbols; for MIC: Staphylococcus aureus, read-out: Antibacterial Activity (MIC) Staph. aureus
# Method: (§1) Some of the compounds of this invention were tested as to their antibacterial activity (MIC, mcg/ml) against Staph. aureus as Gram-positive bacterium and E. coli as Gram-negative bacterium. In the table, the antibacterial activity of 0.09 to 1.25 mcg/ml. is indicated as A1, and the antibacterial activity of more than 1.25 mcg/ml. and not more than 2.5 mcg/ml. is indicated as A2.
# Escherichia coli [2] = experiment: Antibacterial activity (MIC) against Escherichia coli as Gram-negative bacterium; format: cell-based; settings: Table 3, class symbols; for MIC: Escherichia coli, read-out: Antibacterial Activity (MIC) E. coli
# Method: as §1
# Staphylococcus aureus [3] = experiment: Antibacterial activity (MIC) against Staphylococcus aureus as Gram-positive bacterium; format: cell-based; settings: for MBC: Table 1, bacteriocidal, read-out: Staphylococcus aureus bacteriocidal action; for MIC: Table 1, bacteriostatic, read-out: Staphylococcus aureus bacteriostatic action (MIC)
# Escherichia coli [4] = experiment: Antibacterial activity (MIC) against Escherichia coli as Gram-negative bacterium; format: cell-based; settings: for MBC: Table 1, bacteriocidal, read-out: Escherichia coli bacteriocidal action; for MIC: Table 1, bacteriostatic, read-out: Escherichia coli bacteriostatic action (MIC)
# in vivo = settings: mouse
# [5] = Acute toxicity LD50 on mouse; settings: in vivo
Structure (SMILES),MIC (Staphylococcus aureus [1]) [µg/mL],MIC (Escherichia coli [2]) [µg/mL],also measured
Cc1ccc2nc3c(ccc4ncc(C(=O)O)c(O)c43)cc2c1 [Compound F-637],0.09 to 1.25,0.09 to 1.25,MBC (Staphylococcus aureus [3]): 2.5 µg/mL; MIC (Staphylococcus aureus [3]): 1.25 µg/mL; MBC (Escherichia coli [4]): 1.25 µg/mL; MIC (Escherichia coli [4]): 0.62 µg/mL; LD50 (in vivo; iv): 256 mg/kg; LD50 (in vivo; po): > 5000 mg/kg; LD50 ([5]; sc): > 3000 mg/kg
"CS(=O)(=O)c1c2ccccc2nc2c1ccc1ncc(C(=O)O)c(O)c12 [Compound F-889, Pyrido[2,3-c]-acridine-1-hydroxy-7-methylsulfonyl-2-carboxylic acid]",0.09 to 1.25,0.09 to 1.25,
"CSc1c2ccccc2nc2c1ccc1ncc(C(=O)O)c(O)c12 [Compound F-877, Pyrido[2,3-c]-acridine-1-hydroxy-7-methylmercapto-2-carboxylic acid]",0.09 to 1.25,0.09 to 1.25,
"O=C(O)c1cnc2ccc3cc4cc(O)ccc4nc3c2c1O [Compound F-931, Pyrido[2,3-c]-1,9-dihydroxy-2-carboxylic acid]",0.09 to 1.25,0.09 to 1.25,
Cc1c2ccccc2nc2c1ccc1ncc(C(=O)O)c(O)c12 [Compound F-636],0.09 to 1.25,0.09 to 1.25,MBC (Staphylococcus aureus [3]): 1.25 µg/mL; MIC (Staphylococcus aureus [3]): 1.25 µg/mL; MBC (Escherichia coli [4]): 2.5 µg/mL; MIC (Escherichia coli [4]): 1.25 µg/mL; LD50 (in vivo; iv): 235 mg/kg; LD50 (in vivo; po): > 5000 mg/kg; LD50 ([5]; sc): > 3000 mg/kg
"O=C(O)c1cnc2c(Br)cc3cc4ccccc4nc3c2c1O [Compound F-840, Pyrido[2,3-c]-acridine-1-hydroxy-5-bromo-2-carboxylic acid]",,0.09 to 1.25,
"O=C(O)c1cnc2ccc3cc4ccc([N+](=O)[O-])cc4nc3c2c1O [Compound F-892, Pyrido[2,3-c]-acridine-1-hydroxy-10-nitro-2-carboxylic acid]",0.09 to 1.25,0.09 to 1.25,
"C=CCc1c2ccccc2nc2c1ccc1ncc(C(=O)O)c(O)c12 [Compound F-694, Pyrido[2,3-c]-acridine-1-hydroxy-7-allyl-2-carboxylic acid]",1.25 to 2.5,0.09 to 1.25,
"O=C(O)c1cnc2ccc3cc4cc(N(CO)CO)ccc4nc3c2c1O [Compound F-915, Pyrido[2,3-c]-acridine-1-hydroxy-9-di-(hydroxymethyl)amino-2-carboxylic acid]",0.09 to 1.25,0.09 to 1.25,
CCc1c2ccccc2nc2c1ccc1ncc(C(=O)O)c(O)c12 [Compound F-635],0.09 to 1.25,0.09 to 1.25,MBC (Staphylococcus aureus [3]): 0.62 µg/mL; MIC (Staphylococcus aureus [3]): 0.62 µg/mL; MBC (Escherichia coli [4]): 1.25 µg/mL; MIC (Escherichia coli [4]): 1.25 µg/mL; LD50 (in vivo; iv): 186 mg/kg; LD50 (in vivo; po): > 5000 mg/kg; LD50 ([5]; sc): > 3000 mg/kg
"CC(=O)OCCNc1cc2cc3ccccc3nc2c2c(O)c(C(=O)O)cnc12 [Compound F-925, Pyrido[2,3-c] -acridine-1-hydroxy-5-acetoxyethylamino-2-carboxylic acid]",,,Antibacterial Activity (MIC) Staph. aureus (Staphylococcus aureus [1]): A1 (antibacterial activity of 0.09 to 1.25 mcg/ml.); Antibacterial Activity (MIC) E. coli (Escherichia coli [2]): A1 (antibacterial activity of 0.09 to 1.25 mcg/ml.)
"CCNc1ccc2nc3c(ccc4ncc(C(=O)O)c(O)c43)cc2c1 [Compound F-858, Pyrido[2,3-c]-acridine-1-hydroxy-9-ethylamino-2-carboxylic acid]",0.09 to 1.25,0.09 to 1.25,
CCCCc1c2ccccc2nc2c1ccc1ncc(C(=O)O)c(O)c12 [Compound F-634],0.09 to 1.25,0.09 to 1.25,MBC (Staphylococcus aureus [3]): 0.25 µg/mL; MIC (Staphylococcus aureus [3]): 0.25 µg/mL; MBC (Escherichia coli [4]): 0.62 µg/mL; MIC (Escherichia coli [4]): 0.62 µg/mL; LD50 (in vivo; iv): 215 mg/kg; LD50 (in vivo; po): > 5000 mg/kg; LD50 ([5]; sc): > 3000 mg/kg
"O=C(O)c1cnc2ccc3cc4cc(CO)ccc4nc3c2c1O [Compound F-895, Pyrido[2,3-c]-acridine-1-hydroxy-9-hydroxymethyl-2-carboxylic acid]",1.25 to 2.5,0.09 to 1.25,
"O=C(O)c1cnc2ccc3c(-c4ccc(I)cc4)c4ccccc4nc3c2c1O [Compound F-789, Pyrido[2,3-c]-acridine-1-hydroxy-7-p-iodophenyl-2-carboxylic acid]",0.09 to 1.25,0.09 to 1.25,
"O=C(O)c1cnc2c(CO)cc3cc4ccccc4nc3c2c1O [Compound F-893, Pyrido[2,3-c]-acridine-1-hydroxy-5-hydroxymethyl-2-carboxylic acid]",1.25 to 2.5,0.09 to 1.25,
"C=Cc1c2ccccc2nc2c1ccc1ncc(C(=O)O)c(O)c12 [Compound F-690, Pyrido[2,3-c]-acridine-1-hydroxy-7-vinyl-2-carboxylic acid]",1.25 to 2.5,1.25 to 2.5,
"CNc1c2ccccc2nc2c1ccc1ncc(C(=O)O)c(O)c12 [Compound F-853, Pyrido[2,3-c]-acridine-1-hydroxy-7-methylamino-2-carboxylic acid]",0.09 to 1.25,0.09 to 1.25,
"CS(=O)(=O)c1ccc2nc3c(ccc4ncc(C(=O)O)c(O)c43)cc2c1 [Compound F-890, Pyrido[2,3-c]-acridine-1-hydroxy-9-methylsulfonyl-2-carboxylic acid]",0.09 to 1.25,0.09 to 1.25,

Structure (SMILES),MIC (Staphylococcus aureus [1]) [µg/mL],MIC (Escherichia coli [2]) [µg/mL],also measured
"CC(=O)OCCNc1ccc2nc3c(ccc4ncc(C(=O)O)c(O)c43)cc2c1 [Compound F-927, Pyrido[2,3-c]-acridine-1-hydroxy-9-acetoxyethylamino-2-carboxylic acid]",,,Antibacterial Activity (MIC) Staph. aureus (Staphylococcus aureus [1]): A1 (antibacterial activity of 0.09 to 1.25 mcg/ml.); Antibacterial Activity (MIC) E. coli (Escherichia coli [2]): A1 (antibacterial activity of 0.09 to 1.25 mcg/ml.)
"O=C(O)c1cnc2c(N(CO)CO)cc3cc4ccccc4nc3c2c1O [Compound F-913, Pyrido[2,3-c]-acridine-1-hydroxy-5-di-(hydroxymethyl)amino-2-carboxylic acid]",0.09 to 1.25,0.09 to 1.25,
"O=C(O)c1cnc2ccc3cc4ccc(N(CO)CO)cc4nc3c2c1O [Compound F-916, Pyrido[2,3-c]-acridine-1-hydroxy-10-di-(hydroxymethyl)amino-2-carboxylic acid]",0.09 to 1.25,0.09 to 1.25,
"O=C(O)c1cnc2ccc3c(N(CO)CO)c4ccccc4nc3c2c1O [Compound F-914, Pyrido[2,3-c]-acridine-1-hydroxy-7-di-(hydroxymethyl)amino-2-carboxylic acid]",0.09 to 1.25,0.09 to 1.25,
"O=C(O)c1cnc2c(I)cc3cc4ccccc4nc3c2c1O [Compound F-844, Pyrido[2,3-c]-acridine-1-hydroxy-5-iodo-2-carboxylic acid]",0.09 to 1.25,0.09 to 1.25,
"CCn1cc(C(=O)O)c(=O)c2ccc(C)nc21 [Nalidixic acid, reference compound]",,,MIC (Staphylococcus aureus [3]): 125 µg/mL; MBC (Escherichia coli [4]): 6.25 µg/mL; MIC (Escherichia coli [4]): 6.25 µg/mL; LD50 ([5]; iv): 176 mg/kg; LD50 ([5]; po): 3300 mg/kg; LD50 ([5]; sc): 500 mg/kg
"CC(=O)OCCNc1c2ccccc2nc2c1ccc1ncc(C(=O)O)c(O)c12 [Compound F-926, Pyrido[2,3-c]-acridine-1-hydrox-7-acetoxyethylamino-2-carboxylic acid]",,,Antibacterial Activity (MIC) Staph. aureus (Staphylococcus aureus [1]): A1 (antibacterial activity of 0.09 to 1.25 mcg/ml.); Antibacterial Activity (MIC) E. coli (Escherichia coli [2]): A1 (antibacterial activity of 0.09 to 1.25 mcg/ml.)
"Nc1c2ccccc2nc2c1ccc1ncc(C(=O)O)c(O)c12 [Compound F-849, Pyrido[2,3-c]-acridine-1-hydroxy-7-amino-2-carboxylic acid]",1.25 to 2.5,1.25 to 2.5,
"O=C(O)c1cnc2ccc3c(Br)c4ccccc4nc3c2c1O [Compound F-841, Pyrido[2,3-c]-acridine-1-hydroxy-7-bromo-2-carboxylic acid]",,0.09 to 1.25,
"O=C(O)c1cnc2ccc3c(-c4ccccc4Br)c4ccccc4nc3c2c1O [Compound F-777, Pyrido[2,3-c]-acridine-1-hydroxy-7-o-bromophenyl-2-carboxylic acid]",0.09 to 1.25,0.09 to 1.25,
"O=C(O)c1cnc2ccc3cc4cccc(O)c4nc3c2c1O [Compound F-932, Pyrido[2,3-c]-1,11-dihydroxy-2-carboxylic acid]",0.09 to 1.25,0.09 to 1.25,
"O=C(O)c1cnc2ccc3c(I)c4ccccc4nc3c2c1O [Compound F-845, Pyrido[2,3-c]-acridine-1-hydroxy-7-iodo-2-carboxylic acid]",0.09 to 1.25,0.09 to 1.25,
"CN(C)c1c2ccccc2nc2c1ccc1ncc(C(=O)O)c(O)c12 [Compound F-869, Pyrido[2,3-c]-acridine-1-hydroxy-7-dimethylamino-2-carboxylic acid]",0.09 to 1.25,0.09 to 1.25,
"CCNc1cc2cc3ccccc3nc2c2c(O)c(C(=O)O)cnc12 [Compound F-856, Pyrido[2,3-c]-acridine-1-hydroxy-5-ethylamino-2-carboxylic acid]",0.09 to 1.25,0.09 to 1.25,
"O=C(O)c1cnc2ccc3c(O)c4ccccc4nc3c2c1O [Compound F-930, Pyrido[2,3-c]-1,7-dihydroxy-2-carboxylic acid]",0.09 to 1.25,0.09 to 1.25,
"O=C(O)c1ccc2nc3c(ccc4ncc(C(=O)O)c(O)c43)cc2c1 [Compound F-935, Pyrido[2,3-c]-1-hydroxy-2,9-dicarboxylic acid]",1.25 to 2.5,1.25 to 2.5,
"NCc1cc2cc3ccccc3nc2c2c(O)c(C(=O)O)cnc12 [Compound F-901, Pyrido[2,3-c]-acridine-1-hydroxy-5-aminomethyl-2-carboxylic acid]",1.25 to 2.5,1.25 to 2.5,
"O=C(O)c1cnc2c(O)cc3cc4ccccc4nc3c2c1O [Compound F-929, Pyrido[2,3-c]-1,5-dihydroxy-2-carboxylic acid]",0.09 to 1.25,0.09 to 1.25,
